Experimental data reported in BindingDB's records for doi:10.7270/Q2805129 (Vanderbilt Screening Center For Gpcrs, Ion Channels and …, 2009).

Biological target: T1, Muscarinic acetylcholine receptor M5 (Homo sapiens, UniProt P08912)
T1 sequence (P08912 whole entry): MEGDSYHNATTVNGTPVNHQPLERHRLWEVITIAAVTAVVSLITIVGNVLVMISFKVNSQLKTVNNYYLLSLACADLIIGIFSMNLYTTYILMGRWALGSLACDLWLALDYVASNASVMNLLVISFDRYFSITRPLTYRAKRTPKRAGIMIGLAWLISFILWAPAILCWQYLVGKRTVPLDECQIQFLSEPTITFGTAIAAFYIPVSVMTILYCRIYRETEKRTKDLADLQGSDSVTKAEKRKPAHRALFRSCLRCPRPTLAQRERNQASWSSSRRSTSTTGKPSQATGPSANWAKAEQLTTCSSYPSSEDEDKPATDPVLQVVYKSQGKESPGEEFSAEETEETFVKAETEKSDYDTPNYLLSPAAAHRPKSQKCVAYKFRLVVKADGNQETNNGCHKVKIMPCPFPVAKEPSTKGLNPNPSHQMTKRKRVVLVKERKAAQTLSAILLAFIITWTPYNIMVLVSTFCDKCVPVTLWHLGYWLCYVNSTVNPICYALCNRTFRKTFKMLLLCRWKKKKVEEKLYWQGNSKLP
Assay: compound effect on ACh competition at M5, biochemical, [3H]N-methylscopolamine, acetylcholine (AID 2194)

COc1ccc(CN2C(=O)C(=O)c3cc(OC(F)(F)F)ccc32)cc1 [VU0238429]
Ki: 159 nM
